Measurements taken from patent US11376307B2, “Compositions and methods of treating cancer with glycomimetic peptides” (SUSAVION BIOSCIENCES, INC., priority 2018, dated 2022).
Positions of bridges follow the written chain, without caps; N, C: chain ends. Chains are numbered I, II in the order given.

Tests used:
peritoneal immune cells = assay: Expansion of peritoneal cells after subcutaneous injection, flow cytometry; format: in vivo, Balb/c mice; conditions: 24 h after a single s.c. injection, 1 nmol/g
Method: Flow Cytometry Healthy C57BL/6 male mice, 10 weeks old, were injected subcutaneously with peptides on alternate days. Peritoneal cells were isolated from mice 24 h after dosing by injecting ice cold PBS (containing 3% FBS) into the peritoneal cavity, gently massaging the abdomen, and then collecting the fluid, which was transferred into K2EDTA-treated tubes for evaluation of specific biomarkers. Cells from three mice in each group were pooled, counted and divided among FACS tubes (1×10^6 cells per tube). […]
Cells were incubated with the antibodies for 30 min at 4° C. in the dark. Following staining, the cells were washed two times with PBS/3% FBS and immediately analyzed with a MACSQuant flow cytometer (Miltenyi Biotech, Inc., San Diego, Calif.). […]
To examine whether increases occurred in mature immune cells, peritoneal cells from Balb/c and C57BL/6 mice were analyzed by flow cytometry after cells were stained with the markers listed in Table 1. […] Shown in FIGS. 7A-7D are results expressed as cell counts for F4/80 CD11b CD86 (mature, active macrophages); CD11c (DCs); CD11c CD86 (activated DCs); CD4 CD69 (activated T cells); CD8 CD69 (activated cytotoxic T cells); NK1.1 CD3^+ CD69 (activated NKT cells); NK1.1 CD3^− CD69 (activated NK cells); CD19 (B cells); and CD19 CD73 CD80 CD273 (memory B cells). […]

[1] = Serum cytokine array (L-308) in healthy mice; format: in vivo, Balb/c mice; conditions: svL4 s.c., 4 h, separate experiment
Method: Ratios of treated vs. untreated samples obtained in a separate experiment with healthy Balb/c mice are shown in the right-hand column of Table 2 for comparison. The most significant increase in the serum of healthy mice treated with the peptide was in the amount of soluble HVEM (Herpes virus entry mediator, also designated TNFRSF14), which was a prominent protein in serum and increased approximately 10-fold within 4 h after treatment. In the tumor-bearing mice, the level of soluble HVEM in treated animals was similar to that in treated healthy mice, but the level in untreated animals was higher than that in healthy control mice.

[2] = system: ID8 ovarian cancer cell line; assay: Murine model of ovarian cancer, sv6D and paclitaxel
Method: Combination study of sv6D and paclitaxel. (FIG. 8A) Female C57BL/6 mice were implanted with ID8 ovarian cancer cell line. […] Body weights of mice are shown as measured on day 58, after two weeks of alternate-day subcutaneous treatment with sv6D (0.1 nmol/g) or 3 intraperitoneal doses (days 45, 47 and 49) of 18 μg/g paclitaxel in cremophor. […] (FIG. 8B) Alternate-day injections of sv6D were initiated on day 50 with peptide alone or on day 100 to mice that were previously treated with paclitaxel between day 45 and 49. […] (FIG. 8C) Kaplan-Meier survival curves for mice treated with paclitaxel, sv6D or a combination of the two in which alternate-day subcutaneous injections of sv6D was started 50 days after paclitaxel treatment.
Cells of an ovarian epithelial cancer line, ID8 [110], were implanted into the peritoneal cavity of female C57BL/6 mice at a dose of 6×10^6 cells. All animals were weighed at least weekly throughout these studies. Accumulation of ascites was monitored by increase in body weight, and animals were euthanized when end-stage behavior was expressed. […] Kaplan-Meier survival curves were analyzed by the Mantel-Cox log-rank test.
A murine ovarian cancer cell line (ID8) was implanted into the peritoneal cavity of C57BL/6 female mice on day 0. […] Progression of the cancer was monitored by body weight of animals as an indication of ascites accumulation.

recombinant rat CLEC10A = target: T1, recombinant rat CLEC10A (Rattus norvegicus, UniProt P49301); assay: Inhibition of binding of multivalent GalNAc-PAA
T1 construct: The extracellular domains of receptors, which were fused with the Fc domain of immunoglobulin IgG; purchased R&D Systems
T1 sequence (P49301 59-306 limits assumed): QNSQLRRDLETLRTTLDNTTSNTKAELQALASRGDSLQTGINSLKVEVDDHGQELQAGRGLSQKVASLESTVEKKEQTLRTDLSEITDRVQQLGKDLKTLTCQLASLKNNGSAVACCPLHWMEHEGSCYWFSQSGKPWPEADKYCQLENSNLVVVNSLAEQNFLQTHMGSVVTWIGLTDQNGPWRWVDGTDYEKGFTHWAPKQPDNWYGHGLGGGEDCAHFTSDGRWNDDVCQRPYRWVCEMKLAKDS
Method: (§1) FIGS. 3A-3D. sv6D as a mimetic of GalNAc. (FIG. 3A) Inhibition by sv6D of binding of multivalent GalNAc-PAA (GlycoTech Corp., Frederick, Md.) to recombinant rat CLEC10A and human ASGPR-1. The reaction mixture included approximately 200 pmoles of biotinylated GalNc-PAA and increasing concentrations of peptide. The figure includes average values from 3 independent experiments. (FIG. 3B) Biotinylated sv6D or GalNAc-PAA were incubated with rabbit antiserum raised against the 6D sequence (NQHTPR) (SEQ ID NO:1) conjugated to keyhole limpet hemocyanin (KLH). Binding was detected with streptavidin-peroxidase conjugate. Similar data were obtained in 2 experiments. (FIG. 3C) Inhibition by EGTA of binding of sv6D (pattern) or svL4 (solid) to CLEC10A and ASGPR-1, respectively. EGTA (1 mM) was added to the final concentrations indicated to assays. Retention of bound CLEC10A was determined by incubation with biotinylated anti-CLEC10A (goat IgG, R&D Systems) and detection with streptavidin-peroxidase conjugate (light grey circle). Similar data were obtained in 3 experiments. (FIG. 3D) Binding of svL4 and sv6D to human recombinant CLEC10A and ASGPR-1 as a function of concentration of peptide in the assay. The figure is representative of 4 separate assays.
(§2) To further determine whether sv6D interacts with the actual sugar binding site, the ability of sv6D to compete with GalNAc-PAA for binding was assayed.

human ASGPR-1 = target: T2, human ASGPR-1 (Homo sapiens, UniProt P07306); assay: Inhibition of binding of multivalent GalNAc-PAA; conditions: about 200 pmoles biotinylated GalNAc-PAA, increasing peptide
T2 construct: The extracellular domains of receptors, which were fused with the Fc domain of immunoglobulin IgG; purchased R&D Systems
T2 sequence (P07306 62-291 limits assumed): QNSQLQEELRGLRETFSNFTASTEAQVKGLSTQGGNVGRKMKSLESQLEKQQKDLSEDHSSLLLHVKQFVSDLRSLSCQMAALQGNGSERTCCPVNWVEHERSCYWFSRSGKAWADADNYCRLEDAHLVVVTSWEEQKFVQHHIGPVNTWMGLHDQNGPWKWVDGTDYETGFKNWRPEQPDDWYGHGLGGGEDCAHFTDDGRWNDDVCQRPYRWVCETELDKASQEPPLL
Method: as §1, §2

## I: H-VQATQSNQHTPRGGGSKK-NH2 / II: H-VQATQSNQHTPRGGGSK / III: H-VQATQSNQHTPRGGGS / IV: H-VQATQSNQHTPRGGGS (amide I:17-IV:C, I:18-II:C, II:17-III:C) [svL4]
Peritoneal immune cells
  Change in peritoneal macrophages, DCs, T cells and NK cells: Several-fold increases
[1]
  Ratio of level of IFN-γ in sera (treated vs. untreated): no change
  Ratio of level of IL-1α in sera (treated vs. untreated): 0.86
  Ratio of level of IL-2 in sera (treated vs. untreated): no change
  Ratio of level of IL-12p70 in sera (treated vs. untreated): no change
  Ratio of level of IL-17 in sera (treated vs. untreated): no change
  Ratio of level of IL-21 in sera (treated vs. untreated): no change
  Ratio of level of IL-23 in sera (treated vs. untreated): no change
  Ratio of level of IL-27 in sera (treated vs. untreated): 0.55
  Ratio of level of IL-28 in sera (treated vs. untreated): no change
  Ratio of level of IL-31 in sera (treated vs. untreated): no change
  Ratio of level of Lymphotoxin-α in sera (treated vs. untreated): 0.74
  Ratio of level of TNFα in sera (treated vs. untreated): 0.21

## I: H-NQHTPRGGGSKK-NH2 / II: H-NQHTPRGGGSK / III: H-NQHTPRGGGS / IV: H-NQHTPRGGGS (amide I:11-IV:C, I:12-II:C, II:11-III:C) [sv6D]
[2]; paclitaxel days 45-49 followed by sv6D from day 100
  Median survival: 169 days
[2]; paclitaxel followed by sv6D
  Overall survival time: doubled
[2]; single agent, sv6D 0.1 nmol/g, control median end-stage day 122
  Median survival: approximately 141 days
[2]; sv6D alone initiated at day 45
  Weight gain at day 120: no significant weight gain for half the animals
[2]; sv6D alternate days from day 100, 50 days after paclitaxel
  Further increase in body weight over 3 weeks: completely suppressed further increases in weight
[2]; treatment from day 45, sv6D 0.1 nmol/g s.c. alternate days, paclitaxel 18 μg/g i.p. x3
  Body weight (ascites accumulation) after two weeks of treatment: had not significantly increased
Recombinant rat CLEC10A; about 200 pmoles biotinylated GalNAc-PAA, increasing peptide
  Inhibition of binding of GalNAc-PAA to CLEC10A: inhibited
Recombinant rat CLEC10A; from competition experiment
  Avidity relative to multivalent GalNAc-PAA: over an order of magnitude greater
Human ASGPR-1
  Inhibition of binding of GalNAc-PAA to ASGPR-1: inhibited
